Consider 20 compounds from patent US20150087627A1, “COMBINATION OF KINASE INHIBITORS AND USES THEREOF” (Intellikine LLC, priority 2011, published 2015).

As a reminder, the IC50 is the concentration needed to halve the response being measured.

Format in all cases: biochemical
The target in one assay is T1, PI3K α (p110α/p85α) (Homo sapiens, UniProt P42336).
T1 construct: purchased Upstate / Millipore Corporation
Description: PI 3-Kinase (human) HTRF assay, PI3K α. Particulars: read-out: PI3K α IC50. On the technique in general: In TR-FRET formats the signal depends on donor and acceptor labels being close together.

For another assay, the target named is T2, PI3K δ (Homo sapiens, UniProt O00329).
T2 construct: purchased Upstate / Millipore Corporation
The assay can be described thus: PI 3-Kinase (human) HTRF assay, PI3K δ. The note with it: read-out: PI3K δ IC50.

In another assay the target is T3, PI3K β (p110β/p85α) (Homo sapiens, UniProt P42338).
T3 construct: purchased Upstate / Millipore Corporation
The assay can be described thus: PI 3-Kinase (human) HTRF assay, PI3K β. Particulars: read-out: PI3K β IC50.

Another assay addresses T4, PI3K γ (p110γ) (Homo sapiens, UniProt P48736).
T4 construct: purchased Upstate / Millipore Corporation
The assay can be described thus: PI 3-Kinase (human) HTRF assay, PI3K γ. Particulars: read-out: PI3K γ IC50.

T3 sequence (P42338 whole entry): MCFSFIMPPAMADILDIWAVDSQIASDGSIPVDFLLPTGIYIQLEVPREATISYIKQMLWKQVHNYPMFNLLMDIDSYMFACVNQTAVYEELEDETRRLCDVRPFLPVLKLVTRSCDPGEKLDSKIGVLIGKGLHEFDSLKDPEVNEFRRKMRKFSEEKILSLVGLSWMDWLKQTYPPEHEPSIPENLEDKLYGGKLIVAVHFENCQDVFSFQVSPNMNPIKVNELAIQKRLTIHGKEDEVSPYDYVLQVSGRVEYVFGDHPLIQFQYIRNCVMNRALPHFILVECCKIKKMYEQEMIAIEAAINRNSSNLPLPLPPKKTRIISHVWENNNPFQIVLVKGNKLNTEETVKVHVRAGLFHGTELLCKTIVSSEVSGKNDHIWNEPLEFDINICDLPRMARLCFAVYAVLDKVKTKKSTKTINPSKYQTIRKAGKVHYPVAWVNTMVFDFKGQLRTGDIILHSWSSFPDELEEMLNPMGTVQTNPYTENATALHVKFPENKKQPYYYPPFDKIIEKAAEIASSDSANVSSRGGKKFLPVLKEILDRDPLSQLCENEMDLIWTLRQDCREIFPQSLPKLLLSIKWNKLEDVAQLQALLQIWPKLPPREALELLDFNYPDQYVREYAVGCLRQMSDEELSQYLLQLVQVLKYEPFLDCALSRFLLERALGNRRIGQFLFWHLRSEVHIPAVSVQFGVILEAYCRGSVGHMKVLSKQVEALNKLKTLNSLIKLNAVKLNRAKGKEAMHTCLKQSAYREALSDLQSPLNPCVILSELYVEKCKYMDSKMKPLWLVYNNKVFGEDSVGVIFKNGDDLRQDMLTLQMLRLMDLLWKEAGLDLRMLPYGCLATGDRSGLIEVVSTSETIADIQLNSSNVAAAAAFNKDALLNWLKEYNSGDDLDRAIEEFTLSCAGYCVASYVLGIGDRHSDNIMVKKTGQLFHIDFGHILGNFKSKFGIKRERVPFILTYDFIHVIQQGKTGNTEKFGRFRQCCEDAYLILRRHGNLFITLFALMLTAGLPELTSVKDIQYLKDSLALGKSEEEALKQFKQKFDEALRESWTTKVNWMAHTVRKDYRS
T3 sequence (P27986 whole entry partner): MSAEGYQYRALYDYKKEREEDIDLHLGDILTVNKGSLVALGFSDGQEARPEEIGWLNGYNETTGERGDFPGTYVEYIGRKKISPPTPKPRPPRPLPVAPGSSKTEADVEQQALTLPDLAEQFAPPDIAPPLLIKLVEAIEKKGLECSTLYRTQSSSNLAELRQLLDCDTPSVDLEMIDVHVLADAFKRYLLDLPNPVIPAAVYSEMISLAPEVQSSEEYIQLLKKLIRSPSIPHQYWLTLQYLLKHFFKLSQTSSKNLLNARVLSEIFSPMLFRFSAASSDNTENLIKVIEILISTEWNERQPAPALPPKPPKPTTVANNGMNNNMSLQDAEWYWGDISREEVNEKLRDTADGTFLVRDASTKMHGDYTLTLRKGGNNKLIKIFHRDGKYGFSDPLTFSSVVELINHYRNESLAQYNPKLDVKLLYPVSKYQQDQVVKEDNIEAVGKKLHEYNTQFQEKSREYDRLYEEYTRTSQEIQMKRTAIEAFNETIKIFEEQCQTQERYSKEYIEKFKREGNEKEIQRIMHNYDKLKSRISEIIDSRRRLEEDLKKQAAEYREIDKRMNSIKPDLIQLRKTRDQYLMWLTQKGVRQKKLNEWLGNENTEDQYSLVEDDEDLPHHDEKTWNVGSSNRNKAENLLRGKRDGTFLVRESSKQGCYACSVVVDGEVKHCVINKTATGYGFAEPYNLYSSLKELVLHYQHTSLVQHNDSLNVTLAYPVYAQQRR
T2 sequence (O00329 whole entry): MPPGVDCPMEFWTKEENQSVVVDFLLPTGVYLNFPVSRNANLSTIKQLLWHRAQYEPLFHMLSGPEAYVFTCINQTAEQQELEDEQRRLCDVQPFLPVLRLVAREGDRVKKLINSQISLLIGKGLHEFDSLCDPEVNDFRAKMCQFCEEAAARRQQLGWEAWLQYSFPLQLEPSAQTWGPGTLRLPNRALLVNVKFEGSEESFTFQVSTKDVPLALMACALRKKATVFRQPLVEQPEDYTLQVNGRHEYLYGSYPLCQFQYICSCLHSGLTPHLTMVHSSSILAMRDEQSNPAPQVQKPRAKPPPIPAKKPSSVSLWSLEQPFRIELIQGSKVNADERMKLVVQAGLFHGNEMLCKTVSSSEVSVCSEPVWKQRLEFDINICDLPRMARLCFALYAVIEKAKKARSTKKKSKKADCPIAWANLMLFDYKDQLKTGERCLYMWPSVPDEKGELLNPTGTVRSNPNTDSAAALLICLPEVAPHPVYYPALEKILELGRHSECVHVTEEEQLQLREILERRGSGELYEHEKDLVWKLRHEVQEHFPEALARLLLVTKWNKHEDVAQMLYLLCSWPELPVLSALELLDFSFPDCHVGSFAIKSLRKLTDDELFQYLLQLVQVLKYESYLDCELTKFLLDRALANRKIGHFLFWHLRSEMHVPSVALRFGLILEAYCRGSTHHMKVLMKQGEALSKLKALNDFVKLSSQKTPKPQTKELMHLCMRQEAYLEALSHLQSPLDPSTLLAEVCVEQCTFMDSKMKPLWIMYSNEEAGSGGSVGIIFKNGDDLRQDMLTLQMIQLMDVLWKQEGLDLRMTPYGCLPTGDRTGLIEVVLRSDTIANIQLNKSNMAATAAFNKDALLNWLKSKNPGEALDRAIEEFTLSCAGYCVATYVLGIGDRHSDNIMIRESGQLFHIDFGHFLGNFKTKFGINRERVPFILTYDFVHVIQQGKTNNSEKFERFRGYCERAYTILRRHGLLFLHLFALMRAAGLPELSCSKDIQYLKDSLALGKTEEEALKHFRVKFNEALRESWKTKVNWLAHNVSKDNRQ
T2 sequence (P27986 whole entry partner): as the sequence (P27986 whole entry partner) above
T1 sequence (P42336 whole entry): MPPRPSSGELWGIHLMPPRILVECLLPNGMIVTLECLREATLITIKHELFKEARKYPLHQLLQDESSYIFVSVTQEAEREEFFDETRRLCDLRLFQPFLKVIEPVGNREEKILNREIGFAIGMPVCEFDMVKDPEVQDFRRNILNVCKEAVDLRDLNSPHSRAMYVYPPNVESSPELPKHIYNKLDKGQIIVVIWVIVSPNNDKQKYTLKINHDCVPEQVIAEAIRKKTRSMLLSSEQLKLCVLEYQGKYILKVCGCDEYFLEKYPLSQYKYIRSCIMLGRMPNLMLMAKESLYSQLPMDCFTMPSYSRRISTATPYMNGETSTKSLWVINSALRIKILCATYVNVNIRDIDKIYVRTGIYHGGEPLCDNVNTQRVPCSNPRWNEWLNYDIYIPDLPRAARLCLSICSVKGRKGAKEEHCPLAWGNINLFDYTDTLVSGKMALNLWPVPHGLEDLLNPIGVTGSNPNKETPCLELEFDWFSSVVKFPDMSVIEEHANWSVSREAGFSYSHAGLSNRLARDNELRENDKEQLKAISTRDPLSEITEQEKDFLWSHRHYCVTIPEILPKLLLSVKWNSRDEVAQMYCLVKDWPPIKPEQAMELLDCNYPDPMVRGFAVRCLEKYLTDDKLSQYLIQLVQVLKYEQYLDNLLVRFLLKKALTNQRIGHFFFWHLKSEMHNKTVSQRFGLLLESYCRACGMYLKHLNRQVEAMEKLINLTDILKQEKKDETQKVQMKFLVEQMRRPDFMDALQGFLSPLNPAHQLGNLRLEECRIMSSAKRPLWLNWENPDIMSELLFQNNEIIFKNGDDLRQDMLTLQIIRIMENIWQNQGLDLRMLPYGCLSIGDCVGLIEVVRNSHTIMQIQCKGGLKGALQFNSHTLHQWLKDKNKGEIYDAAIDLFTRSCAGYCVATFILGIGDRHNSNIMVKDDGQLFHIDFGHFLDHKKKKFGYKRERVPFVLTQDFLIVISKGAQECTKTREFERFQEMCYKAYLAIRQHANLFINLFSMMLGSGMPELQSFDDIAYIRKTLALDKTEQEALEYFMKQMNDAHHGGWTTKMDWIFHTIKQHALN
T1 sequence (P27986 whole entry partner): as the sequence (P27986 whole entry partner) above
T4 sequence (P48736 whole entry): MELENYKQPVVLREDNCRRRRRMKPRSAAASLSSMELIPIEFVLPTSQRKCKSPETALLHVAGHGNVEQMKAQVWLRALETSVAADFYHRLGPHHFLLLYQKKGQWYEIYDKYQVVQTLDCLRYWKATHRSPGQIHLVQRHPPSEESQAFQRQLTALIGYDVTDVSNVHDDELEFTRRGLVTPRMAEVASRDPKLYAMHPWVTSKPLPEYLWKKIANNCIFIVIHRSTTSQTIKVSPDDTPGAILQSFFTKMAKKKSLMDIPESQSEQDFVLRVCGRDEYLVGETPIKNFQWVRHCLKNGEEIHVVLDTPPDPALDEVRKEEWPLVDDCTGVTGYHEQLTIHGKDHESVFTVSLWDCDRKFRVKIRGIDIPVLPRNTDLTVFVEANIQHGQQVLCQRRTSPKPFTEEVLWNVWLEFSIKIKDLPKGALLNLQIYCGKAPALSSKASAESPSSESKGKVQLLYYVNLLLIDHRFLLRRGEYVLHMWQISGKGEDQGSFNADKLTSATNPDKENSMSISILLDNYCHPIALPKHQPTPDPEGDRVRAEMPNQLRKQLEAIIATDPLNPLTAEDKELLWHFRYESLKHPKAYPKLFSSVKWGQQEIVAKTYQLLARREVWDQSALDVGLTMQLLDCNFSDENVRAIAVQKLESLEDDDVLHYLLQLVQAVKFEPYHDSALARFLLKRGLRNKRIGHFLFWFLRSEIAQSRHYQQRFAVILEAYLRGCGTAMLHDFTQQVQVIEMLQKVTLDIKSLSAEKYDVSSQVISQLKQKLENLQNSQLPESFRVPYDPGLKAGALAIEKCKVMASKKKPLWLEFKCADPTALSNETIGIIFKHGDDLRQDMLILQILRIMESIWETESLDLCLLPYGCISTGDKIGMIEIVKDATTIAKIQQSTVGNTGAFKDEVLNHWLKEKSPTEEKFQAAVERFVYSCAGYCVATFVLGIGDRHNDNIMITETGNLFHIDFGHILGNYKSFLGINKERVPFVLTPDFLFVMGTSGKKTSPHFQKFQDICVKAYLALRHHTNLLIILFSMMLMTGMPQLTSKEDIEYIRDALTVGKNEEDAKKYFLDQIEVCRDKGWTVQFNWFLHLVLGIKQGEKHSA
Description for PI3K γ (p110γ): (§1) Briefly, the assay is a time resolved FRET assay that indirectly measures PIP3 product formed by the activity of a PI3-K. The kinase reaction is performed in a microtiter plate (e.g., a 384 well microtiter plate). The total reaction volume is approximately 20 ul per well. In the first step, each well receives 2 ul of test compound in 20% dimethylsulphoxide resulting in a 2% DMSO final concentration. […] The plate is sealed and incubated for 15 minutes at room temperature. […] The plate is sealed and incubated for 1 hour at room temperature. The reaction is stopped by adding 5 ul of Stop Solution per well and then 5 ul of Detection Mix is added per well. The plate is sealed, incubated for 1 hour at room temperature, and then read on an appropriate plate reader. Data is analyzed and IC50s are generated using GraphPad Prism 5.
Description for PI3K δ: as §1

As for `Nc1nsc2ccc(-c3ccc4nccc(-c5ccncc5)c4c3)cc12` [Compound 12], the IC50 at PI3K α (p110α/p85α), on PI3K δ, at PI3K β (p110β/p85α) and at PI3K γ (p110γ) was > 10 µM each time.
As to `Nc1nc2cc(-c3cc4nccc(-c5ccncc5)c4s3)ccc2o1` [Compound 14], the IC50 at PI3K α (p110α/p85α) is < 10 µM; on PI3K δ it was > 10 µM; at PI3K β (p110β/p85α), > 10 µM; on PI3K γ (p110γ), < 10 µM.
On to `Nc1nc2cccc(-c3ccc4nccc(-c5ccncc5)c4c3)c2s1` [Compound 17], for which the IC50 was < 0.1 µM at PI3K α (p110α/p85α), < 1 µM on PI3K δ, < 1 µM on PI3K β (p110β/p85α) and < 0.1 µM at PI3K γ (p110γ).
In the case of `Nc1noc2ccc(-c3ccc4nccc(-c5ccncc5)c4c3)cc12` [Compound 18], the half-maximal inhibitory concentration (IC50) on PI3K α (p110α/p85α) is < 10 µM; at PI3K δ, > 10 µM; at PI3K β (p110β/p85α) it was > 10 µM; at PI3K γ (p110γ) it was < 10 µM.
Regarding `CC(=O)Nc1cn2cc(-c3ccc4nccc(-c5ccncc5)c4c3)ccc2n1` [Compound 19], the IC50 at PI3K α (p110α/p85α), at PI3K δ, on PI3K β (p110β/p85α) and at PI3K γ (p110γ) was > 10 µM each time.
As for `CN1CCN(c2ccnc3ccc(-c4ccc5oc(N)nc5c4)cc23)CC1` [Compound 21], the IC50 on PI3K α (p110α/p85α) is < 1 µM; at PI3K δ it was < 10 µM; on PI3K β (p110β/p85α), < 10 µM; on PI3K γ (p110γ), < 10 µM.
As to `CN1CCN(c2ncnc3ccc(-c4ccc5oc(N)nc5c4)cc23)CC1` [Compound 23], the IC50 was < 0.1 µM at PI3K α (p110α/p85α), < 10 µM at PI3K δ, < 1 µM at PI3K β (p110β/p85α) and < 0.1 µM on PI3K γ (p110γ).
Regarding `Nc1nc2cc(-c3ccc4ncnc(NC5CCOCC5)c4c3)ccc2o1` [Compound 24], the IC50 is < 0.1 µM at PI3K α (p110α/p85α), < 0.1 µM on PI3K δ, < 1 µM on PI3K β (p110β/p85α) and < 0.1 µM at PI3K γ (p110γ).
Consider `Nc1nc2cc(-c3c[nH]c4nccc(-c5ccncc5)c34)ccc2o1` [Compound 25], for which the IC50 on PI3K α (p110α/p85α) is < 10 µM; on PI3K δ, > 10 µM; on PI3K β (p110β/p85α), > 10 µM; at PI3K γ (p110γ), < 10 µM.
As for `Nc1nc2cc(-c3ccc4ncn(C5CCOCC5)c4c3)ccc2o1` [Compound 48], the IC50 at PI3K α (p110α/p85α) is < 10 µM; on PI3K δ, > 10 µM; on PI3K β (p110β/p85α), > 10 µM; on PI3K γ (p110γ) it was > 10 µM.
Regarding `Nc1nc2cc(-c3ccc4ncc(-c5ccc(N6CCOCC6)nc5)n4c3)ccc2o1` [Compound 51], the IC50 is < 0.1 µM on PI3K α (p110α/p85α), < 1 µM at PI3K δ, < 1 µM on PI3K β (p110β/p85α) and < 1 µM at PI3K γ (p110γ).
`Nc1nc2cc(-c3ccc4ncc(N5CCOCC5)n4c3)ccc2o1` [Compound 53]: the IC50 is < 10 µM at PI3K α (p110α/p85α), > 10 µM on PI3K δ, > 10 µM on PI3K β (p110β/p85α) and > 10 µM on PI3K γ (p110γ).
For `Nc1nc2cc(-c3ccc4ncc(N5CCOCC5)n4n3)ccc2o1` [Compound 57], the IC50 on PI3K α (p110α/p85α) is < 1 µM; on PI3K δ, > 10 µM; on PI3K β (p110β/p85α) it was < 1 µM; on PI3K γ (p110γ), < 10 µM.
With `Nc1nc2cc(-c3ccc4ncc(-c5cccnc5)n4n3)ccc2o1` [Compound 58], the half-maximal inhibitory concentration (IC50) at PI3K α (p110α/p85α), on PI3K δ, on PI3K β (p110β/p85α) and at PI3K γ (p110γ) was < 0.1 µM throughout.
For the compound `Nc1nc2cc(-c3ccc4ncc(-c5cn[nH]c5)n4n3)ccc2o1` [Compound 59], the IC50 on PI3K α (p110α/p85α) is < 0.1 µM; on PI3K δ it was < 1 µM; on PI3K β (p110β/p85α) it was < 0.1 µM; on PI3K γ (p110γ) it was < 0.1 µM.
As for `Nc1nc2cc(-c3cnc4ncc(-c5ccncc5)n4c3)ccc2o1` [Compound 61], the IC50 at PI3K α (p110α/p85α), on PI3K δ, at PI3K β (p110β/p85α) and on PI3K γ (p110γ) was > 10 µM throughout.
As to `Nc1nc2ccc(-c3ccc4ncn(C5CCOCC5)c(=O)c4c3)cc2o1` [Compound 63], the IC50 is < 10 µM on PI3K α (p110α/p85α), > 10 µM on PI3K δ, > 10 µM on PI3K β (p110β/p85α) and > 10 µM at PI3K γ (p110γ).
Regarding `Nc1nc2cc(-c3cn4c(-c5ccncc5)cnc4cn3)ccc2o1` [Compound 68], the IC50 was < 0.1 µM at PI3K α (p110α/p85α), < 10 µM on PI3K δ, < 10 µM on PI3K β (p110β/p85α) and < 1 µM on PI3K γ (p110γ).
In the case of `Nc1nc2cc(-c3cn4c(-c5cn[nH]c5)cnc4cn3)ccc2o1` [Compound 69], the 50% inhibitory concentration (IC50) is < 1 µM on PI3K α (p110α/p85α), < 10 µM at PI3K δ, < 10 µM at PI3K β (p110β/p85α) and < 1 µM at PI3K γ (p110γ).
With `Nc1nc2cc(-c3ccc4nccc(-c5ccncc5)c4c3)ccc2s1` [Compound 70], the IC50 on PI3K α (p110α/p85α), on PI3K δ, on PI3K β (p110β/p85α) and at PI3K γ (p110γ) was < 0.1 µM in each case.
